Experimental data: ChEMBL document CHEMBL4014333, “Discovery of Small Molecules for Repressing Cap-Independent Translation of Human Vascular Endothelial Growth Factor (hVEGF) as Novel Antitumor Agents” (J Med Chem, 2017)
Activity calls are given as the source filed them. Numbered stars: 1 amine (or outer) side, 2 acyl side, 3 side chain; on linkers, the order of the positions; unused ones are H or OH. Square brackets hold non-standard residues; d marks the D form. Peptide text beside a SMILES is read from it. X1 = CN1CCC(COc2ccc3oc4c(N(CC(=O)[*:2])[*:1])c5ccccc5nc4c3c2)CC1

What was measured:
Homo sapiens [1] = species: Homo sapiens; experiment: Destabilization of human wild type internal ribosome entry site A RNA G-quadruplex assessed as melting temperature at 5 uM by CD spectra method (reference value: 80.9 +/- 0.8 degreeC)
Homo sapiens [2] = species: Homo sapiens; experiment: Destabilization of human wild type internal ribosome entry site A RNA G-quadruplex expressed in MCF7 cells assessed as down regulation of VEGF-A translation up to 0.5 uM after 24 hrs by dual-luciferase reporter gene assay relative to control; type: cell-based
MCF7 = experiment: Antitumor activity against human MCF7 cells xenografted in nude Balb/c mouse assessed as tumor weight at 1 mg/kg, ip qd for 20 days; type: functional
Homo sapiens [3] = species: Homo sapiens; experiment: Destabilization of human 5'-UGAAGAGUGUGAGUAGUA-3' RNA expressed in MCF7 cells assessed as down regulation of VEGF-A translation at up to 1.5 uM after 24 hrs by dual-luciferase reporter gene assay; type: cell-based
Homo sapiens [4] = species: Homo sapiens; experiment: Binding affinity to biotin-labeled human wild type internal ribosome entry site A RNA G-quadruplex by SPR analysis
[5] = Binding affinity to biotin-labeled DNA hairpin (unknown origin) by SPR analysis
Homo sapiens [6] = species: Homo sapiens; experiment: Binding affinity to biotin-labeled human 5'-UGAUGAGUGUGAGGAGGA-3' RNA G-quadruplex by SPR analysis
Homo sapiens [7] = species: Homo sapiens; experiment: Destabilization of human wild type internal ribosome entry site A RNA G-quadruplex expressed in MCF7 cells assessed as down regulation of VEGF-A translation at 1.5 uM after 24 hrs by dual-luciferase reporter gene assay relative to control; type: cell-based
Homo sapiens [8] = species: Homo sapiens; experiment: Destabilization of human 5'-UGAAGAGUGUGAGUAGUA-3' RNA expressed in MCF7 cells assessed as down regulation of VEGF-A translation at up to 0.5 uM after 24 hrs by dual-luciferase reporter gene assay; type: cell-based

SMILES	Activity (Homo sapiens [4])	Activity [5]	Activity (Homo sapiens [6])	other results
CN(C)CCCNC1C2=Nc3ccccc3C2=Nc2ccccc21 (stereo not given)				Tm (Homo sapiens [1]): > 81 °C; Activity (Homo sapiens [2]): inactive
COc1cccc2c1C(=O)c1c(O)c3c(c(O)c1C2=O)C[C@@](O)(C(=O)CO)C[C@@H]3O[C@H]1C[C@H](N)[C@H](O)[C@H](C)O1 [DOXORUBICIN]				Activity (MCF7): 0.14 g
NC(=O)c1ccccc1NC(=O)c1ccccc1[N+](=O)[O-]				Activity (Homo sapiens [3]): inactive
CCN(CC)CCCNc1c2ccccc2[n+](C)c2c1oc1ccc(OCC3CC[N+](C)(C)CC3)cc12	Active	Active	Active	
CCN(CC)CCNc1c2ccccc2[n+](C)c2c1oc1ccc(OCC[N+]3(C)CCCCC3)cc12	Active	Active	Active	
CCN(CC)CCNC(=O)COc1ccc2oc3c(NCCN(CC)CC)c4ccccc4[n+](C)c3c2c1	Active	Active	Active	
CCN(CC)CCCNc1c2ccccc2[n+](C)c2c1oc1ccc(OCC(=O)NCCCN(C)C)cc12	Active	Active	Active	
C[n+]1c2ccccc2c(NCCN2CCCCC2)c2oc3ccc(OCC[N+](C)(C)C)cc3c21	Active	Active	Active	
NCCOc1cc(C(=O)Nc2cc(OCCN)c3ccccc3n2)cc(C(=O)Nc2cc(OCCN)c3ccccc3n2)c1				Tm (Homo sapiens [1]): > 76 °C; Activity (Homo sapiens [7]): inactive; Activity (Homo sapiens [8]): inactive
CCN(CC)CCCNc1c2ccccc2[n+](C)c2c1oc1ccc(OCC[N+]3(C)CCOCC3)cc12	Active	Active	Active	
CN(C)CCCNc1c2ccccc2[n+](C)c2c1oc1ccc(OCC[N+]3(C)CCOCC3)cc12	Active	Active	Active	
C[n+]1c2ccccc2c(NCCN2CCCCC2)c2oc3ccc(OCC[N+]4(C)CCCCC4)cc3c21	Active	Active	Active	
CCN(CC)CCNc1c2ccccc2[n+](C)c2c1oc1ccc(OCC3CC[N+](C)(C)CC3)cc12	Active	Active	Active	
C[n+]1c2ccccc2c(NCC(=O)NCC(=O)NC(Cc2ccccc2)C(=O)O)c2oc3ccccc3c21 (stereo not given)	Active	Active	Active	
C[n+]1c2ccccc2c(NCCN2CCOCC2)c2oc3ccc(OCC[N+]4(C)CCOCC4)cc3c21	Active	Active	Active	
COc1ccc2cc3[n+](cc2c1NCCc1ccccc1)CCc1cc2c(cc1-3)OCO2	Active	Active	Active	
CCN(CC)CCCNc1c2ccccc2[n+](C)c2c1oc1ccc(OCC[N+]3(C)CCCCC3)cc12	Active	Active	Active	
CN1CCC(COc2ccc3oc4c(NCC(=O)NCC(=O)NC(CCCNC(=N)N)C(=O)NC(CCCNC(=N)N)C(=O)NCC(=O)O)c5ccccc5nc4c3c2)CC1 (stereo not given) (H-[X1]GRRG-OH; configuration not given here)	Active	Active	Active	
CCN(CC)CCNc1c2ccccc2[n+](C)c2c1oc1ccc(OCC[N+](C)(C)C)cc12	Active	Active	Active	
COc1ccc2cc3[n+](cc2c1NCCCN1CCCCC1)CCc1cc2c(cc1-3)OCO2	Active	Active	Active	
CN(C)CCCNc1c2ccccc2nc2c1oc1cc(OCCCN(C)C)ccc12	Active	Active	Active	
COc1ccc2cc3[n+](cc2c1NCCCN1CCOCC1)CCc1cc2c(cc1-3)OCO2	Active	Active	Active	
C[n+]1c2ccccc2c(NCCN2CCOCC2)c2oc3ccc(OCCC[N+](C)(C)C)cc3c21	Active	Active	Active	
C[n+]1c2ccccc2c(NCCN2CCCCC2)c2oc3ccc(OCC4CC[N+](C)(C)CC4)cc3c21	Active	Active	Active	
C[n+]1c2ccccc2c(NCCCN2CCOCC2)c2oc3ccc(OCC4CC[N+](C)(C)CC4)cc3c21	Active	Active	Active	
CN(C)CCCNC(=O)COc1ccc2oc3c(NCCCN(C)C)c4ccccc4[n+](C)c3c2c1	Active	Active	Active	
C[n+]1c2ccccc2c(NCCN2CCCCC2)c2oc3ccc(OCC(=O)NCCN4CCCCC4)cc3c21	Active	Active	Active	

More lines, main results first:

Activity (Homo sapiens [4])	Activity [5]	Activity (Homo sapiens [6])	SMILES	other results
Active	Active	Active	CN(C)CCCNc1c2ccccc2[n+](C)c2c1oc1ccc(OCC[N+](C)(C)C)cc12	
Active	Active	Active	C[n+]1c2ccccc2c(NCCCO)c2[nH]c3ccccc3c21	
Active	Active	Active	CN(C)CCNc1c2ccccc2[n+](C)c2c1[nH]c1ccc(F)cc12	
Active	Active	Active	C[n+]1c2ccccc2c(NCC(=O)NCC(=O)NCC(=O)O)c2oc3ccccc3c21	
Active	Active	Active	CN(C)CCCNc1c2ccccc2[n+](C)c2c1oc1ccc(OCC3CC[N+](C)(C)CC3)cc12	
Active	Active	Active	CCN(CC)CCNc1c2ccccc2[n+](C)c2c1[nH]c1ccccc12	
Active	Active	Active	CCN(CC)CCCNc1c2ccccc2[n+](C)c2c1[nH]c1ccccc12	
Active	Active	Active	CN(C)CCNc1c2ccccc2[n+](C)c2c1oc1ccc(OCCC[N+](C)(C)C)cc12	
Active	Active	Active	CN(C)CCNc1c2ccccc2[n+](C)c2c1oc1ccc(OCC[N+]3(C)CCCCC3)cc12	
Active	Active	Active	CN(C)CCCNc1c2ccccc2[n+](C)c2c1[nH]c1ccc(F)cc12	
Active	Active	Active	CN(C)CCNc1c2ccccc2[n+](C)c2c1oc1ccc(OCC3CC[N+](C)(C)CC3)cc12	
Active	Active	Active	CN(C)CCNc1c2ccccc2[n+](C)c2c1oc1ccc(OCC[N+]3(C)CCOCC3)cc12	
Active	Active	Active	CN(C)CCNc1c2ccccc2[n+](C)c2c1oc1ccccc12	
